Results published in patent US8883824B2, “3-(4-aminophenyl)-2-furancarboxylic acid derivative and pharmaceutically acceptable salt thereof” (Sumitomo Dainippon Pharma Co., Ltd., priority 2009, dated 2014).
Entries after “also recorded” stand apart in the source; their conditions may differ. Where a name gives a salt, the structure may show the parent alone.

Tests used:
[1] = target: T1, glucagon receptor (rat hepatocyte membrane) (Rattus norvegicus, UniProt P30082); assay: Glucagon receptor binding inhibition; conditions: SD rat liver cell membrane, 50 pM (3-[125I]iodotyrosyl10)glucagon, 25° C., 120 minutes; read-out: IC50 (nM) Rat, glucagon receptor binding inhibitory activity
T1 construct: A cell membrane was prepared from the liver of an SD rat; from tissue; host or cells: SD rat liver (cell membrane fraction)
T1 sequence (P30082 27-485): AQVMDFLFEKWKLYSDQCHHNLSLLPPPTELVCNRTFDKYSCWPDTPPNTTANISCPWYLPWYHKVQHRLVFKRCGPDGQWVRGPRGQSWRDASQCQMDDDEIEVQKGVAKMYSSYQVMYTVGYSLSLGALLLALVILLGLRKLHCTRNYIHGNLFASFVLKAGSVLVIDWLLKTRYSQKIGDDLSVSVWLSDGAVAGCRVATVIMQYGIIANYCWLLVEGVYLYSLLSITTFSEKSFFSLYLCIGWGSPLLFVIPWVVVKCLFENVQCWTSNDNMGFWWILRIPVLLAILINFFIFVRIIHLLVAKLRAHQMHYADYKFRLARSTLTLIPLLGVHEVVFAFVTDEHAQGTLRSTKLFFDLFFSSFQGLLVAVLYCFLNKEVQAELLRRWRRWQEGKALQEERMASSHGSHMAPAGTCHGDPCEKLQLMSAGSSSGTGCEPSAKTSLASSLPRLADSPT
Protocol: The composition of the reaction solution used in the receptor binding inhibition experiment was prepared according to the method described in Bioorg. Med. Chem. Lett., 1992, 12, 915-918, using the following methods. (3-[^125I] iodotyrosyl^10) Glucagon and a rat hepatocyte membrane were obtained or prepared according to the following methods.
(3-[^125I] iodotyrosyl^10)Glucagon was obtained according to the following method at PerkinElmer Co., Ltd (Great Britain). Using a chloramine T method, glucagon (Peptide Institute) was labeled with [^125I], and (3-[^1251] iodotyrosyl ^10)Glucagon was separated using HPLC. Purchased from PerkinElmer Co., Ltd. (Great Britain), was a product obtained by dissolving it in an aqueous solution containing 10 mM citric acid, 5% lactose, 0.2% cysteine HCl, and 0.25% BSA so that the radioactivity was 3.7 MBq/mL at reference date, followed by freeze-drying. The product was re-dissolved in a 0.3-TIU/mL aprotinin aqueous solution so that the radioactivity was 3.7 MBq/mL at reference date, and it was freeze-stored at −15 to −40° C. for use.
A cell membrane was prepared from the liver of an SD rat according to the method described on pages 31 to 33 of Zikken Seibutsugaku Kouza 6, Saibou bunkakuhou (Experimental Biology Lecture 6, Cell Fraction Method) (Maruzen Co., Ltd.). The resulting cell membrane was freeze-stored at −70 to −85° C. for use.
The cell membrane that had been dissolved at room temperature and then suspended using a Physcotron (Microtec Co., Ltd. was added to a 50-mM Tris-HCl buffer (pH 7.2) containing 1 mg/mL BSA (Sigma-Aldrich), 0.1 mg/mL bacitracin (Wako Pure Chemical Industries, Ltd.), 1% DMSO, 0.01% acetic acid, and 50 pM) (3-[^125I] iodotyrosyl^10) Glucagon (pH 7.2) (each value indicating the final concentration and the radioactivity of (3-[^125I] iodotyrosyl^10) Glucagon calculated on the measurement date) to give a total amount of 0.2 mL. The reaction was started and incubation was performed at 25° C. for 120 minutes. The concentration of the cell membrane was adjusted so that 10% of the added)(3-[^1251] iodotyrosyl^100 Glucagon was equal to the total amount of binding.
Using a GF/C filter (Whatman International Ltd., Great Britain) immersed for more than 15 minutes in 0.3% polyethyleneimine (Sigma-Aldrich, Co., LLC), whose pH was adjusted to 7.2 by adding hydrochloric acid, the reaction solution was subjected to suction filtration to recover (3-[^125I] iodotyrosyl)Glucagon bound to the membrane. The filter was washed 3 times with an ice-cooled 50-mM Tris-HCl buffer (pH 7.4), and the radioactivity of the filter was measured by using a γ counter (1470 WIZARD γ-counter)(Wallac). The amount of specific binding was measured by subtracting the amount of nonspecific binding determined in the presence of 10 μM glucagon (Peptide Institute, Inc.) from the total amount of binding.
The amount of specific binding in the absence of a test compound was regarded as 100%, and inhibitions (%) at various concentrations of test compounds were calculated. The concentration at 50% inhibition of binding (IC50) was calculated using a nonlinear least squares method.

[2] = tested on: ob/ob mice; assay: Blood sugar decrease in ob/ob mice (hyperglycemia and impaired fasting glycemia); type: in vivo
Description: Effects of the compound of Example 69 on hyperglycemia and impaired fasting glycemia in ob/ob mice, which are type II diabetes models, were examined.
B6.V-Lepob/J (ob/ob) mice and control B6.V-Lepob/J (?/+) mice (male, 6 to 7 weeks old, n=8, Charles River Japan Inc.) were used. To examine the effect on hyperglycemia, feed was removed from the cage at the same time as the start of drug administration, and to examine the effect on impaired fasting glycemia, feed was removed from the cage about 20 hours before the scheduled time of drug administration. Under each experimental condition, the mice were allowed free access to drinking water. 2, 4 and 6 hours after the forced oral administration of the compound (0.01-1.0 mg/kg) of Example 69, which had been suspended in 0.5% methyl cellulose, the blood sugar levels were examined.

[3] = tested on: ob/ob mice; assay: Combination use with pioglitazone, HbA1c in ob/ob mice; type: in vivo; conditions: oral
Protocol: An experiment using the compound of Example 69 and pioglitazone in combination was performed to examine the effect on the HbAlc values in ob/ob mice.
(§1) B6.V-Lepob/J (ob/ob) mice and control B6.V-Lepob/J (?/+) mice (male, 6 to 7 weeks old, n=8, Charles River Japan) were used. The compound of Example 69 suspended in 0.5% methyl cellulose (3 mg/kg, twice a day), and pioglitazone (1 mg/kg, once a day) were orally administered repeatedly for 4 weeks singly or in combination.
The effects were compared based on the […] (HbA1c) value, and a diabetes-like state (prolonged hyperglycemic state) was confirmed by HbA1c increase in the ob/ob mice.

[4] = tested on: ob/ob mice; assay: Combination use with metformin, HbA1c in ob/ob mice; type: in vivo; conditions: oral; for HbAlc value: single use, 4 weeks (Example 69 3 mg/kg twice a day; metformin 100 mg/kg twice a day)
Protocol: An experiment using the compound of Example 69 and metformin in combination was performed to examine the effect on the HbAlc value in ob/ob mice.
as §1, with “69 (3 mg/kg, twice a day)” for “69”, “cellulose, and metformin (100” for “cellulose (3”, “a” for “a day), and pioglitazone (1 mg/kg, once a”, “day) dissolved in the solvent” for “day)”

[5] = tested on: ob/ob mice; assay: Combination use with DPPIV inhibitor sitagliptin, postprandial hyperglycemia in ob/ob mice; type: in vivo
Protocol: B6.V-Lepob/J (ob/ob) mice and control B6.V-Lepob/J (?/+) mice (male, 6 to 7 weeks old, n=8, Charles River Japan) were used. […] One hour later, liquid food (ensure H, Abbott Japan, Co., Ltd., 1.5 kcal/mL) was orally administered. The blood sugar levels immediately before, and 15, 30, 60, and 90 minutes after administration of the liquid food were measured.

[6] = combination use of Example 69 (0.1 mg/kg) and sitagliptin (5 mg/lm), single oral dose
[7] = single use, single oral dose (Example 69 0.1 mg/kg; sitagliptin 5 mg/lm) one hour before liquid food

| SMILES | IC50 [1] [nM] | also measured |
| --- | --- | --- |
| N#Cc1cc(C(=O)NNC(=O)c2occc2-c2cccc(NC(=O)c3ccccc3)c2)ccc1O [Compound A, reference compound] | 2800 | – |
| CC(=O)N(Cc1ccccc1)c1cccc(-c2ccoc2C(=O)NNC(=O)c2ccc(O)c(C#N)c2)c1 [Compound B, reference compound] | 1200 | – |
| CC(=O)Nc1cccc(-c2ccoc2C(=O)NNC(=O)c2ccc(O)c(C#N)c2)c1 [Compound C, reference compound] | 340 | – |
| N#Cc1cc(C(=O)NNC(=O)c2occc2-c2cccc(NC(=O)OCc3ccccc3)c2)ccc1O [Compound D, reference compound] | 400 | – |
| N#Cc1cc(C(=O)NNC(=O)c2occc2-c2cccc(N)c2)ccc1O [Compound E, reference compound] | 9800 | – |
| CC(C)(C)c1ccc(CNc2ccc(-c3ccoc3C(=O)NNC(=O)c3ccc(O)c([N+](=O)[O-])c3)cc2)cc1 [Example 6] | 0.13 | – |
| O=C(NNC(=O)c1occc1-c1ccc(NCc2ccc(OC(F)(F)F)cc2)cc1)c1ccc(O)c([N+](=O)[O-])c1 [Example 7] | 0.34 | – |
| C[C@H](Nc1ccc(-c2ccoc2C(=O)NNC(=O)c2ccc(O)c([N+](=O)[O-])c2)cc1)C1CCCCC1 [Example 77] | 0.35 | – |
| CN(C)C(=N)N=C(N)N [metformin, reference compound] | – | HbAlc value [4]: HbAlc reduction |

The next lines start with results.

| IC50 [1] [nM] | SMILES | also measured |
| --- | --- | --- |
| 0.22 | Cc1ccc(C(C)Nc2ccc(-c3ccoc3C(=O)NNC(=O)c3ccc(O)c([N+](=O)[O-])c3)cc2)cc1 (stereo not drawn) [Example 1, 3-(4-{[1-(4-methylphenyl)ethyl]amino}phenyl)-2-furan carboxylic acid-2-(4-hydroxy-3-nitrobenzoyl)hydrazide hydrochloride] | – |
| 0.11 | C[C@H](Nc1ccc(-c2ccoc2C(=O)NNC(=O)c2ccc(O)c([N+](=O)[O-])c2)cc1)c1ccc(F)cc1 [Example 68, 3-(4-{[(1S)-1-(4-fluorophenyl)ethyl]amino}phenyl)-2-furan carboxylic acid-2-(4-hydroxy-3-nitrobenzoyl)hydrazide] | – |
| 0.085 | Cc1ccc([C@H](C)Nc2ccc(-c3ccoc3C(=O)NNC(=O)c3ccc(O)c([N+](=O)[O-])c3)cc2)cc1 [Example 69] | duration of the blood sugar decreasing effect ([2]; high-dose administration, oral): continued even 6 hours after the administration; blood sugar level relative to the healthy (control) mouse ([2]; oral 0.01-1.0 mg/kg): not reduced to below the level of the healthy mouse; blood sugar decreasing effect at 2 hours after administration ([2]; oral 0.01-1.0 mg/kg, any dosage, under each experimental condition (hyperglycemia; impaired fasting glycemia)): remarkable blood sugar decreasing effect; HbA1c reduction effect versus single use ([3]; combination use of Example 69 (3 mg/kg twice a day) and pioglitazone (1 mg/kg once a day), 4 weeks): higher HbA1c reduction effect; also recorded: extremely stronger HbA1c reduction effect; HbA1c value ([3]; single use, 4 weeks (Example 69 3 mg/kg twice a day; pioglitazone 1 mg/kg once a day)): attained HbA1c reduction; HbAlc reduction effect versus single use ([4]; combination use of Example 69 (3 mg/kg twice a day) and metformin (100 mg/kg twice a day), 4 weeks): higher HbAlc reduction effect; also recorded: extremely stronger HbAlc reduction effect; HbAlc value [4]: HbAlc reduction; area under the blood concentration-time curve (blood sugar) after liquid food [5, 6]: normalized; blood sugar level 15 minutes after the administration of liquid food [5, 6]: normalized; hypoglycemia [5, 6]: without causing hypoglycemia; postprandial hyperglycemia inhibitory effect versus the single use of each agent ([5]; combination use of Example 69 and sitagliptin (FIGS. 1 and 2)): extremely stronger postprandial hyperglycemia inhibitory effect; area under the blood concentration-time curve (blood sugar) after liquid food [5, 7]: normalized; blood sugar increase 15 minutes after the administration of liquid food [5, 7]: could not normalize |
| 0.13 | CCc1ccc([C@H](C)Nc2ccc(-c3ccoc3C(=O)NNC(=O)c3ccc(O)c([N+](=O)[O-])c3)cc2)cc1 [Example 70] | – |
| 0.043 | Cc1ccc([C@H](C)Nc2ccc(-c3ccoc3C(=O)NNC(=O)c3ccc(O)c([N+](=O)[O-])c3)cc2)cc1C [Example 71] | – |
| 0.14 | C[C@H](Nc1ccc(-c2ccoc2C(=O)NNC(=O)c2ccc(O)c([N+](=O)[O-])c2)cc1)c1ccc(Cl)cc1 [Example 72] | – |
| 0.16 | Cc1cccc([C@H](C)Nc2ccc(-c3ccoc3C(=O)NNC(=O)c3ccc(O)c([N+](=O)[O-])c3)cc2)c1 [Example 73] | – |
| 0.12 | Cc1cc([C@H](C)Nc2ccc(-c3ccoc3C(=O)NNC(=O)c3ccc(O)c([N+](=O)[O-])c3)cc2)ccc1Cl [Example 75] | – |
| 5.8 | C[C@@H](Nc1ccc(-c2ccoc2C(=O)NNC(=O)c2ccc(O)c([N+](=O)[O-])c2)cc1)c1ccc(F)cc1 [Example 76] | – |
| 0.62 | C[C@H](Nc1ccc(-c2ccoc2C(=O)NNC(=O)c2ccc(O)c([N+](=O)[O-])c2)cc1)c1ccccc1 [Example 78] | – |
| 0.74 | C[C@H](Nc1ccc(-c2ccoc2C(=O)NNC(=O)c2ccc(O)c(C#N)c2)cc1)c1ccc(F)cc1 [Example 79, 3-(4-{[(1S)-1-(4-fluorophenyl)ethyl]amino}phenyl)-2-furan carboxylic acid-2-(3-cyano-4-hydroxybenzoyl)hydrazide] | – |
